“Also recorded” adds a separate entry of the source.
How the values were obtained:
Type in all cases: cell-based, mouse
[1] = tested on: promoter or enhancer regions of neuronal and mesenchymal genes; test: ATAC-seq chromatin accessibility; settings: 10 μM blebbistatin or 5 μM PF573228, 2 hours
Description: A total of 1,000,000 fibroblasts treated with vehicle control (DMSO), 10 μM blebbistatin or 5 μM PF573228 were collected after 2 hours and stored at −80° C. prior to sample processing. ATAC-seq was performed as described previously^47. In brief, frozen cells were thawed and washed once with PBS and then resuspended in 500 μL of cold PBS. The cell number was assessed by Cellometer Auto 2000 (Nexcelom Bioscience, Massachusetts, USA). 100,000 cells were then added to ATAC lysis buffer and centrifuged at 500 g in a pre-chilled centrifuge for 5 minutes. Supernatant was removed and the nuclei were resuspended in 50 μL of tagmentation reaction mix by pipetting up and down. The reactions were incubated at 37° C. for 30 minutes in a thermomixer with shaking at 1,000 r.p.m., and then cleaned up using the MiniElute reaction clean up kit (Qiagen). Tagmented DNA was amplified with barcoded primers. Library quality and quantity were assessed with Qubit 2.0 DNA HS Assay (ThermoFisher), Tapestation High Sensitivity D1000 Assay (Agilent Technologies), and QuantStudio® 5 System (Applied Biosystems). Equimolar pooling of libraries was performed based on QC values and sequenced on an Illumina® NovaSeq (Illumina, California, USA) with a read length configuration of 150 PE for [100]M PE reads (50M in each direction) per sample.
FASTQ files were trimmed with Trim Galore and cutadapt^48. Pair-ended reads were then aligned to the mouse reference genome (mm10) with Bowtie2^49. Mitochondrial reads and PCR duplicates were removed using SAMtools^50 and Picard (http://broadinstitute.github.io/picard/), respectively. Peaks were called over input using MACS3^51, and only peaks outside the ENCODE blacklist region were kept. All peaks from all samples were merged and featureCount^52 was used to count the mapped reads for each sample.

neuronal genes = test: qRT-PCR of neuronal gene expression; settings: for neuronal gene expression at day 5: blebbistatin or 5 μM PF573228, vs non-treated transduced cells
Description: RNA was isolated from samples using Trizol® (Ambion) according to the manufacturer's instructions. For cDNA synthesis, 500 ng of RNA was reverse transcribed using Maxima First Strand cDNA Synthesis Kit (ThermoFisher Scientific). Template DNA was amplified using Maxima SYBR Green/Fluorescein qPCR Master Mix (ThermoFisher Scientific) on a CFX qPCR machine (Bio-Rad). qRT-PCR data were analyzed using CFX Manager 3.1 (Bio-Rad) and gene expression levels were normalized to 18S.

[2] = tested on: BAM-transduced fibroblasts; test: iN reprogramming of BAM-transduced fibroblasts with cytoskeletal and adhesion inhibitors (TUBB3+ iN cells, 2 weeks); settings: for dose response of reprogramming efficiency: varying concentrations
Description: To examine whether these changes in cell stiffness, actin structure and expression of contractility-mediating genes were involved in iN reprogramming, we evaluated the effects of disrupting the cytoskeleton using small molecule inhibitors. For these experiments, BAM-transduced fibroblasts were reprogrammed as in FIG. 1A and chemical compounds known to perturb the cytoskeleton were added to the culture medium on day 1 to evaluate their effects on the reprogramming process. […] The reprogramming efficiency was determined as the percentage of TUBB3*-iN cells normalized to the number of cells plated at 24 hours post-seeding (i.e., day 0). First, we tested whether disruption of cytoskeletal contractility could influence the direct reprogramming of fibroblasts into neurons using blebbistatin, a non-muscle myosin II inhibitor^22-24. We observed that iN cells could be derived in the absence and presence of blebbistatin (FIG. 3A). […] In particular, treatment with 10 μM blebbistatin generated the highest number of iN cells and increased the reprogramming efficiency by approximately 4.5-fold compared to the control, therefore, this concentration was used in all subsequent experiments. […] As Ascl1 has been identified as a pioneer factor for iN reprogramming and transduction of Ascl1 alone is sufficient to generate iN cells^25,26, we further investigated whether blebbistatin could influence iN conversion by Ascl1 induction.
After transduction, mouse fibroblasts were seeded onto multi-well tissue culture-treated polystyrene dishes (Falcon) coated with laminin (0.1 mg/ml, Corning) at 4,000 cells per cm^2. Twenty-four hours after seeding, the medium was replaced to MEF medium containing doxycycline (2 μg/ml, Sigma). The following day (i.e., day 1) the medium was changed to N3 medium (DMEM/F12 [GIBCO]+N2 supplement [Invitrogen]+B27 supplement [Invitrogen]+1% penicillin/streptomycin [Gibco]+ doxycycline [2 μg/ml, Sigma]) and the cultures were maintained in this medium for the duration of the experiments. For Ascl1-only reprogramming, N3 medium was further supplemented with BDNF (5 ng/ml, R&D systems) and GDNF (5 ng/ml, R&D systems) after day 7. For cytoskeletal and cell adhesion disruptions, Blebbistatin (Millipore), Y-27632 (20 μM; Cayman Chemical), Nocodazole (0.3 μM; Sigma), Cytochalasin D (1 μM; Sigma), Jasplakinolide (0.05 μM; Cayman Chemical) and PF573228 (Sigma) were administered in N3 medium on day 1 and for the first 7 days of reprogramming (unless stated otherwise) and used at the indicated concentrations. Culture medium was replenished every 2 days during reprogramming to maintain the activity of the small molecules. After culturing for the desired length (14 days for BAM and 21 days for Ascl1 only), the induced neuronal (iN) cells were analyzed and the reprogramming efficiency was determined.
The reprogramming efficiency was determined by as the percentage of TUBB3^+ iN cells in each condition normalized to the number of cells plated at 24 hours post-seeding. Epifluorescence images were collected using a Zeiss Axio Observer.D1, Zeiss Axio Observer.Z1, and ImageXpress Micro XLS System (Molecular Devices), whereas confocal images were acquired using a Zeiss LSM710 microscope and Leica SP8 Confocal Laser Scanning microscope.

[3] = tested on: histone acetyltransferase (HAT); test: HAT activity assay on nuclear extracts of treated fibroblasts; settings: 10 μM blebbistatin or 5 μM PF573228, 2 hours, vs DMSO
Description: Nuclear protein extractions were isolated from 5×10^5 fibroblasts treated with vehicle control (DMSO), 10 μM blebbistatin or 5 μM PF573228 for 2 hours using a nuclear extraction kit (EpiGentek, OP-0002), in accordance with the manufacturer's instructions. HAT, HDAC, H3K4 HMT, H3K4 HDM and DNMT activity were measured using the HAT activity/inhibition assay (EpiGentek, P-4003-048), HDAC activity/inhibition assay (EpiGentek, P-4034-096), Histone methyltransferase (H3K4 specific) activity/inhibition assay (EpiGentek, P-3002-1), Histone Demethylase (H3K4 specific) activity/inhibition assay (EpiGentek, P-3074-48), and DNMT activity/inhibition assay (EpiGentek, P-3009-048), respectively. Per the manufacturer's instructions, 20 μg of nuclear extract was added into the assay wells and incubated at 37° C. for 90 minutes. After adding the color developer solution, the absorbance was measured using a plate reader (Infinite […], 30050303) at 450 nm for all the assays with the exception of the Histone Demethylase (H3K4 specific) activity/inhibition assay where we measured the fluorescence using a fluorescence microplate reader at 530 EX/590 EM nm.

SMILES | chromatin accessibility of mesenchymal genes [1] | chromatin accessibility of neuronal genes (Ascl1, Brn2, Myt1l, Tubb3) [1] | endogenous Brn2 and Myt1l expression (neuronal genes; Ascl1-transduced fibroblasts) | expression of several neuronal genes including NeuroD1 (neuronal genes; Ascl1-transduced fibroblasts) | Ascl1 expression at day 3 (neuronal genes; BAM-transduced fibroblasts) | Brn2 and Myt1l expression at day 3 (neuronal genes; BAM-transduced fibroblasts) | neuronal gene expression at day 5 (neuronal genes; BAM-transduced fibroblasts) | concentration generating the highest number of iN cells [2] [µM] | time course of TUBB3+ iN cell generation ([2]; as early as day 5) | phase of reprogramming in which treatment is effective ([2]; early days 1-5, mid days 5-9, late days 9-13, 10 μM) | reprogramming efficiency in Tau-EGFP fibroblasts ([2]; mouse fibroblasts isolated from Tau-EGFP mice) | length of treatment sufficient to enhance reprogramming efficiency ([2]; treatment over timescales of 1 to 14 days) [days] | dose response of reprogramming efficiency [2] | HAT activity [3]
Cc1ccc2c(c1)C(=O)C1(O)CCN(c3ccccc3)C1=N2 (stereo not shown) [blebbistatin] | slightly decreased the accessibility at the promoters or enhancer regions of some mesenchymal genes | could increase the accessibility at the promoter or enhancer regions of neuronal genes | upregulated the expression of endogenous Brn2 and Myt1l | higher | upregulated | did not show such a drastic increase in the expression level | significantly increased | 10 | led to more efficient generation of TUBB3^+ iN cells than the control | most crucial during the early phase of reprogramming | enhanced reprogramming efficiency by blebbistatin was also confirmed | 3 | biphasic dose response | increased
CS(=O)(=O)c1cccc(CNc2nc(Nc3ccc4c(c3)CCC(=O)N4)ncc2C(F)(F)F)c1 [PF573228] | slightly decrease the accessibility of mesenchymal genes | could increase the accessibility at the promoter or enhancer regions of neuronal genes | – | – | – | – | greater | – | – | – | – | – | significantly increased the reprogramming efficiency in a biphasic manner; also recorded: promoted iN reprogramming in a biphasic manner | differences

Source: patent publication US20230381774A1, “MICROFLUDIC LAB-ON-CHIP DEVICE, MATRIX, SMALL MOLECULES AND THREE-DIMENSIONAL SPHEROIDS FOR CELL REPROGRAMMING” (The Regents of the University of California, priority 2022, published 2023)
